Test results published in patent US6716838B1, “Substituted polycyclic aryl and heteroaryl uracils as anticoagulative agents” (Pharmacia Corporation, priority 1999, dated 2004).

How the values were obtained:
Assay type in all cases: biochemical
[1] = biological target: T1, recombinant soluble tissue factor and recombinant human factor VIIa (Homo sapiens, UniProt P08709); experiment: TF-VIIa Assay; settings: chromogenic substrate, 60 min at room temperature, pH 8.0
T1 construct: purchased American Diagnostica, Greenwich Conn; (factor VIIa); soluble TF made in house; host or cells: E. coli (soluble TF only)
T1 sequence (P08709 213-466 limits assumed): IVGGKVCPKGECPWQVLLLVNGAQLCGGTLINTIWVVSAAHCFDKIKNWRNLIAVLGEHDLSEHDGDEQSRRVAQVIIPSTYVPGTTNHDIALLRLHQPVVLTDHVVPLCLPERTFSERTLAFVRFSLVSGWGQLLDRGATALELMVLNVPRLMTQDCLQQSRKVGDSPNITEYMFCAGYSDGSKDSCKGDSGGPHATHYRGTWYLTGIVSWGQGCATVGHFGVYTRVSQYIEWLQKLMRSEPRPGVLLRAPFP
T1 sequence (P08709 61-212 limits assumed): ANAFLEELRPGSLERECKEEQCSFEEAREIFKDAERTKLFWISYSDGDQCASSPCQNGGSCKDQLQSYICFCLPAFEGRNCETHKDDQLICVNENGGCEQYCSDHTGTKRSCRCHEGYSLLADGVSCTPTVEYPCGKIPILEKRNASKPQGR
T1 sequence (P13726 33-251 partner limits assumed): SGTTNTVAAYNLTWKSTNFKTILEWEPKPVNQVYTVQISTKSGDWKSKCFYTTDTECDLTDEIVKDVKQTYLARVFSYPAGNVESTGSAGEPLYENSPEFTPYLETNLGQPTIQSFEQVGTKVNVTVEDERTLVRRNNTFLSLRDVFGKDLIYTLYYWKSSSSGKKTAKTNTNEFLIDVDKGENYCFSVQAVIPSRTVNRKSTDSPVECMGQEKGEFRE
Experimental: In this assay 100 nM recombinant soluble tissue factor and 2 nM recombinant human factor VIIa are added to a 96-well assay plate containing 0.4 mM of the substrate, N-Methylsulfonyl-D-phe-gly-arg-p-nitroaniline and either inhibitor or buffer (5 mM CaCl2, 50 mM Tris-HCl, pH 8.0, 100 mM NaCl, 0.1% BSA). The reaction, in a final volume of 100 ul is measured immediately at 405 nm to determine background absorbance. The plate is incubated at room temperature for 60 min, at which time the rate of hydrolysis of the substrate is measured by monitoring the reaction at 405 nm for the release of p-nitroaniline. Percent inhibition of TF-VIIa activity is calculated from OD405 nm value from the experimental and control sample.
(§1) Recombinant soluble TF, consisting of amino acids 1-219 of the mature protein sequence was expressed in E. coli and purified using a Mono Q Sepharose FPLC. Recombinant human VIIa was purchased from American Diagnostica, Greenwich Conn. and chromogenic substrate N-Methylsulfonyl-D-phe-gly-arg-p-nitroaniline was prepared by American Peptide Company, Inc., Sunnyvale, Calif. Factor Xa was obtained from Enzyme Research Laboratories, South Bend Ind., thrombin from Calbiochem, La Jolla, Calif., and trypsin and L-BAPNA from Sigma, St Louis Mo. The chromogenic substrates S-2765 and S-2238 were purchased from Chromogenix, Sweden.

human thrombin = human thrombin (Homo sapiens, UniProt P00734); experiment: Thrombin Assay; settings: chromogenic substrate, 60 min at room temperature, pH 8.0; read-out: Thrombin II IC50
Experimental: (§2) 0.28 nM human thrombin and 0.06 mM H-D-Phenylalanyl-L-pipecolyl-L-argioine-p-nitroaniline dihydrochloride are added to a 96-well assay plate containing either inhibitor or buffer (50 mM Tris-HCl, pH 8.0, 100 mM NaCl, 0.1% BSA). The reaction, in a final volume of 100 ul is measured immediately at 405 nm to determine background absorbance. The plate is incubated at room temperature for 60 min, at which time the rate of hydrolysis of the substrate is measured by monitoring the reaction at 405 nm for the release of p-nitroaniline. Percent inhibition of thrombin activity is calculated from OD405 nm value from the experimental and control sample.
as §1

human factor Xa = biological target: T2, human factor Xa (Homo sapiens, UniProt P00742); experiment: Xa Assay; settings: substrate S-2765, 60 min at room temperature, pH 8.0
T2 construct: leads from XII to XIIa to XIa to IXa and to the conversion of X to Xa; purchased Enzyme Research Laboratories, South Bend Ind
T2 sequence (P00742 235-488 limits assumed): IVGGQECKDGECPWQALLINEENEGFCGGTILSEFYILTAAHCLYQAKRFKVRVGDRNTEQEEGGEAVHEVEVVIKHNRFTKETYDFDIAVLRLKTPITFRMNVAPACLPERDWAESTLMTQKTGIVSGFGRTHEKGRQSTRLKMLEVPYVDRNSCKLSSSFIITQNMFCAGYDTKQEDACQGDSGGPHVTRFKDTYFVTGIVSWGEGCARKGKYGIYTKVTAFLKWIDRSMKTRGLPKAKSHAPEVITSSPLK
T2 sequence (P00742 41-179 limits assumed): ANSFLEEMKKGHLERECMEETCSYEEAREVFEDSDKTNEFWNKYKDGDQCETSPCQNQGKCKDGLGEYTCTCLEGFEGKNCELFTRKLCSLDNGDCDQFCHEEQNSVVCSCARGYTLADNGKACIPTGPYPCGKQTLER
Experimental: as §2, with “0.3 nM” for “0.28 nM”, “human factor Xa” for “human thrombin”, “and 0.15” for “and 0.06”, “mM N-α-Benzyloxycarbonyl-D-arginyl-L-glycyl-L-arginine-p-nitroaniline-dihydrochloride (S-2765)” for “mM H-D-Phenylalanyl-L-pipecolyl-L-argioine-p-nitroaniline dihydrochloride”, “of Xa” for “of thrombin”
as §1

[2] = biological target: T3, trypsin, type IX from porcine pancreas (Sus scrofa, UniProt P00761); experiment: Trypsin Assay; settings: substrate L-BAPNA, 60 min at room temperature, pH 8.0; read-out: Trypsin II IC50
T3 construct: purchased Sigma, St Louis Mo. type IX; host or cells: porcine pancreas
T3 sequence (P00761 9-231): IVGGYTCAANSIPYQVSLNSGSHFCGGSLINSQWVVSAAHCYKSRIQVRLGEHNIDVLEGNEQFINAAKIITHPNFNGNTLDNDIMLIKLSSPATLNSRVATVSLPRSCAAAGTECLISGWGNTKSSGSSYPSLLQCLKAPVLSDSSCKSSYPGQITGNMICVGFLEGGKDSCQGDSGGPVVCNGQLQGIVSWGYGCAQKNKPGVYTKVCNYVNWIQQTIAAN
Experimental: 5 ug/ml trypsin, type IX from porcine pancreas and 0.375 mM N-α-Benzoyl-L-arginine-p-nitroanilide (LBAPNA) are added to a 96-well assay plate containing either inhibitor or buffer (50 mM Tris-HCl, pH 8.0, 100 mM NaCl, 0.1% BSA). The reactions, in a final volume of 100 ul are measured immediately at 405 nm to determine background absorbance. The plate is incubated at room temperature for 60 min, at which time the rate of hydrolysis of the substrate is measured by monitoring the reaction at 405 nm for the release of p-nitroaniline. Percent inhibition of trypsin activity is calculated from OD405 nm value from the experimental and control sample.
as §1

IC50 [1] [nM]	IC50 (human thrombin) [nM]	IC50 (human factor Xa) [nM]	IC50 [2] [nM]	Compound
12900	300	200	200	N=C(N)NCCC[C@H](NC(=O)Cn1c(=O)c(NS(=O)(=O)Cc2ccccc2)cn(Cc2ccccc2)c1=O)C(=O)c1nccs1 [Example 2]
> 100000	13000	25600	400	N=C(N)c1ccc(CNC(=O)Cn2c(=O)c(NS(=O)(=O)Cc3ccccc3)cn(Cc3ccccc3)c2=O)cc1 [Example 1]
